From patent US6689748B1, “Method of treating mast cell activation-induced diseases with a proteoglycan” (priority 1998, dated 2004)

Experiments:
Type in all cases: cell-based
[1] = system: mast cells purified from peritoneal cavities of male Sprague/Dawley rats; assay: Histamine secretion from purified rat peritoneal mast cells after saccharide preincubation and wash, stimulated with C48/80 or SP; details: preincubated with 10^−5 M saccharide 60 min 37° C., washed twice; for Mast Cell Secretion (% inhibition), C48/80: stimulated with 10^−5 M C48/80, n = 4; for Mast Cell Secretion (% inhibition), SP: stimulated with 10^−5 M Substance P, n = 3
Protocol: We studied the effect of chondroitin sulfate on histamine secretion from mast cells purified from peritoneal cavities of male Sprague/Dawley rats (300g, Charles River) over 25% Metrizamide (Accurate Scientific). Mast cells were preincubated with 10^−5 M saccharide for 60 min at 37° C. followed by two washes and resuspension in saccharide-free medium prior to stimulation with 10^−5 M of the mast cell secretagogue, compound 48/80 (C48/80) or the neuropeptide Substance P (SP). As the cells were washed free of saccharide, any inhibitory effect was not due to any interference with binding of C48/80 or SP to the cell surface. Consequently, this effect is distinct from reports showing that certain monosaccharide-containing lectins inhibit C48/80-induced mast cell secretion (Matsuda, K., et al., Jpn. J. Pharmacol. 64:1, 1994).

[2] = system: mast cells purified from 300g male Sprague/Dawley rats; assay: Histamine secretion from purified rat mast cells, 15 min preincubation, washed, C48/80 stimulation; details: for Mast Cell Secretion, % of Total: 15 min preincubation, washed, then C48/80 0.1 μg/ml 10 min
Protocol: Here, we investigated the effect of the polysaccharide chondroitin sulfate and of the flavonoid quercetin on histamine secretion from mast cells purified from 300g male Sprague/Dawley rats. Mast cells were preincubated with the test compound for 15 min at 37° C. and washed twice prior to stimulation with 0.1 μg/ml of the mast cell secretagogue compound 48/80 (C48/80) for 10 min. […] A combination of these naturally occurring products available OTC could be useful for the prevention of stress-induced gastrointestinal syndromes, such as irritable bowel syndrome or inflammatory bowel disease.

[3] = system: human leukemic mast cells; assay: Proliferation of cultured human leukemic mast cells; details: for Inhibition (%) of human leukemic mast cell proliferation: n = 5
Source text: Cell viability was about 90% or better.

## N[C@H]1C(O)O[C@H](CO)[C@@H](O)[C@@H]1O.O=S(=O)(O)O (stereo partly drawn) [D-Glucosamine sulfate]
[1]
  Mast Cell Secretion (% inhibition), C48/80: 33.7 ± 1.5%
  Mast Cell Secretion (% inhibition), SP: 27.5 ± 18.1%

## CC(=O)N[C@H]1C(O)O[C@H](CO)[C@@H](O)[C@@H]1O (stereo partly drawn) [N-acetyl-glucosamine]
[1]
  Mast Cell Secretion (% inhibition), C48/80: 37.4 ± 10.5%
  Mast Cell Secretion (% inhibition), SP: 30.8 ± 6.5%

## O=c1c(O)c(-c2ccc(O)c(O)c2)oc2cc(O)cc(O)c12 [Quercetin, quercetin]
[2]; test compound 10^−6M
  Mast Cell Secretion, % of Total: 30.5 ± 0.5%

## chondroitin sulfate
[2]; 10^−4 M, C48/80 stimulation
  maximal inhibition of mast cell activation: 83%
[2]; test compound 10^−4M
  Mast Cell Secretion, % of Total: 5.3 ± 1.3%
[2]; test compound 10^−5M
  Mast Cell Secretion, % of Total: 15.3 ± 2.7%
[2]; test compound 10^−6M
  Mast Cell Secretion, % of Total: 31.0 ± 2.9%
[1]
  Mast Cell Secretion (% inhibition), C48/80: 75.4 ± 3.6%
  Mast Cell Secretion (% inhibition), SP: 38.1 ± 12.2%
[3]; Day 3, 10^−4M
  Inhibition (%) of human leukemic mast cell proliferation: 57.8 ± 13.3%
[3]; Day 3, 10^−5M
  Inhibition (%) of human leukemic mast cell proliferation: 44.3 ± 12.7%
[3]; Day 3, 10^−6M
  Inhibition (%) of human leukemic mast cell proliferation: 27.2 ± 12.1%
[3]; Day 3, 10^−7M
  Inhibition (%) of human leukemic mast cell proliferation: 12.6 ± 9.6%
[3]; Day 4, 10^−4M
  Inhibition (%) of human leukemic mast cell proliferation: 53.1 ± 8.9%
[3]; Day 4, 10^−5M
  Inhibition (%) of human leukemic mast cell proliferation: 38.9 ± 9.1%
[3]; Day 4, 10^−6M
  Inhibition (%) of human leukemic mast cell proliferation: 25.3 ± 9.6%
[3]; Day 4, 10^−7M
  Inhibition (%) of human leukemic mast cell proliferation: 14.9 ± 6.9%
[3]; Day 5, 10^−4M
  Inhibition (%) of human leukemic mast cell proliferation: 52.4 ± 13.9%
[3]; Day 5, 10^−5M
  Inhibition (%) of human leukemic mast cell proliferation: 31.2 ± 15.8%
[3]; Day 5, 10^−6M
  Inhibition (%) of human leukemic mast cell proliferation: 20.7 ± 15.2%
[3]; Day 5, 10^−7M
  Inhibition (%) of human leukemic mast cell proliferation: 14.7 ± 6.8%
[3]; human leukemic mast cells cultured in the presence of chondroitin sulfate
  Cell viability: ≥ 90%
